# Reference: ChEMBL document CHEMBL1201862, “PubChem BioAssay data set” (2004)
# Activity calls are given as the source filed them.
# Tests used:
# [1] = MC4R antagonists, dose response, counter-screen for LGR2 antagonist project, cell-based, plate reader, cherry pick (AID 743444); assay type: functional;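 further: transfected HEK 293 cells stimulated with alpha-MSH peptide; potency of inhibitors of the alpha-MSH evoked signal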
# [2] = LGR2 antagonists, dose response, cell-based, HEK293, CRE-luciferase reporter, cherry pick, set 2 (AID 743343); assay type: functional;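 further: transfected cells were stimulated with diluted bursicon conditioned medium after compound addition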
# [3] = A549 cell cytotoxicity, dose response, cytotoxicity control, plate reader, cherry-pick, antagonist series (AID 743412); assay type: functional, cell-based
# [4] = inhibitors of firefly luciferase expression or activity, dose response, H4 neuroglioma cells, luminescence (AID 1990); assay type: functional, cell-based
# HEK293 = experiment: inhibitors of LMP1-driven NF-kB reporter, dose response, cell-based, HEK293, luciferase, cherry-pick (AID 588343); assay type: functional; details: Homo sapiens
# [5] = Luminescence Cell-Based Dose Response HTS to Identify Inhibitors of 5'UTR Stem-Loop Driven Prion Protein mRNA Translation in H4 Neuroglioblastoma Cells. [Related pubchem assays: 1827 (Project Summary), 1813 (Primary HTS)]; assay type: functional
# [6] = target: T1, Heat shock factor protein 1 (Mus musculus, UniProt P38532); experiment: inhibition of MG132-induced HSE-luciferase signal, confirmation, cell-based, NIH3T3, luminescence, dose retest (AID 2382); assay type: functional;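 further: NIH3T3 fibroblasts with HSF1-driven luciferase reporter stressed by proteasome inhibitor MG132; luminescence from HSF1-driven luciferase expression after 8 hours of MG132 stress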
# T1 sequence (P38532 whole entry): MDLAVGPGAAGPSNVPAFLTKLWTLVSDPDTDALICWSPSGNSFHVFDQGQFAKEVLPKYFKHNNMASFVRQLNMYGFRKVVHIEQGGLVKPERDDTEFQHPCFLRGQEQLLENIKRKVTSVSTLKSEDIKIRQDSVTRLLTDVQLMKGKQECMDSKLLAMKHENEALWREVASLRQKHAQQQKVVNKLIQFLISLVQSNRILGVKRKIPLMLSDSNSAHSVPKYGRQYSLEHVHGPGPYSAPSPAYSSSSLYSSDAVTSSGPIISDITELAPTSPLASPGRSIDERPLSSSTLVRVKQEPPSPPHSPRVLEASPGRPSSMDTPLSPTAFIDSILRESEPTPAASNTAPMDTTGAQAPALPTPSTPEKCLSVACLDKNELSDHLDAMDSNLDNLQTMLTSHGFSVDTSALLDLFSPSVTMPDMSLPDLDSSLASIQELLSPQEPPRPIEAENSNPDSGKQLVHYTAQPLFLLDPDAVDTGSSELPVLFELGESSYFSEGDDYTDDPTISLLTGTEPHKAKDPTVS
# [7] = inhibitors of SNCA 5'UTR-driven reporter translation, confirmation, H4 neuroglioma cells, luminescence (AID 1988); assay type: functional, cell-based
# [8] = HEK293 cell cytotoxicity, dose response, cytotoxicity control, plate reader, cherry-picked samples (AID 743446); assay type: functional, cell-based
# [9] = target: T2, Histone-lysine N-methyltransferase NSD2 (Homo sapiens, UniProt O96028); assay type: biochemical
# T2 sequence (O96028 whole entry): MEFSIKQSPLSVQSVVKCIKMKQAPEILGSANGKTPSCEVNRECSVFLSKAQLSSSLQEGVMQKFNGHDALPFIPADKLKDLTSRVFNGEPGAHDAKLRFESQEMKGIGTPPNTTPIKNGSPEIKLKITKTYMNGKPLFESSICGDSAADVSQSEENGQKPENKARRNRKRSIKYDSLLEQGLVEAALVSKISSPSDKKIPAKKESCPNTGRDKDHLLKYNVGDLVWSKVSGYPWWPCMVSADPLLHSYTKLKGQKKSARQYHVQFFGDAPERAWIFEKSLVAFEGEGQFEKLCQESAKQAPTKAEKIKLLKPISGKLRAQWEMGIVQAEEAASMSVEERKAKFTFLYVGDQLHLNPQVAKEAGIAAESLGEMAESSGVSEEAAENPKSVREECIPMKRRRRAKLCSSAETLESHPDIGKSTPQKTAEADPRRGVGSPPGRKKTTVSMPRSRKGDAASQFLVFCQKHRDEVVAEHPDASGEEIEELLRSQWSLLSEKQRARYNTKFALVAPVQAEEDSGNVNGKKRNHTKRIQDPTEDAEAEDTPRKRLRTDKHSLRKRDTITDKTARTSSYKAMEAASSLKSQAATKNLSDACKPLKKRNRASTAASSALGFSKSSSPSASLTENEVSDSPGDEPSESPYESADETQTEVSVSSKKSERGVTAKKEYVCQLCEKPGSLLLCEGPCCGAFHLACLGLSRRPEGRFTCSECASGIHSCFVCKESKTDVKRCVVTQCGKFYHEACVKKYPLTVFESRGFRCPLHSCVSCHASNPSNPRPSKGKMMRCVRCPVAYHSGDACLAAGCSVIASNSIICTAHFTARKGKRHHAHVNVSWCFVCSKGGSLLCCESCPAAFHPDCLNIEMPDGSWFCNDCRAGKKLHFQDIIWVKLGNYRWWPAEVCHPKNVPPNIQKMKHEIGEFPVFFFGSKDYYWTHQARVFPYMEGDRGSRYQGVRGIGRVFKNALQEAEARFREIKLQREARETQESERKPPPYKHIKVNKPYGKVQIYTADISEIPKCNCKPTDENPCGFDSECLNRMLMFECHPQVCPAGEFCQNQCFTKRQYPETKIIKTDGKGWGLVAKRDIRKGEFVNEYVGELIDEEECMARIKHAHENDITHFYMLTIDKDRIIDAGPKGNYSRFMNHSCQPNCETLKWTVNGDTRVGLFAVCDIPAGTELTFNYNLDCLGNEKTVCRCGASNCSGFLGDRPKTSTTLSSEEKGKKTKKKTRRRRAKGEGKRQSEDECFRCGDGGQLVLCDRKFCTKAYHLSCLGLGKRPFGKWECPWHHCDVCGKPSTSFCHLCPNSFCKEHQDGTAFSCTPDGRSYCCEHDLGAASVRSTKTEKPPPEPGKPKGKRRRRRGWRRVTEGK
# [10] = target: Ras and Rab interactor 1/Tyrosine-protein kinase ABL1 (Homo sapiens, UniProt P00519+Q13671); experiment: biochemical; assay type: functional;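 further: biochemical TR-FRET dose-response test measuring inhibition of binding between Rin1 and Abl proteins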
# Ras and Rab interactor 1/Tyrosine-protein kinase ABL1, sequence (P00519 whole entry): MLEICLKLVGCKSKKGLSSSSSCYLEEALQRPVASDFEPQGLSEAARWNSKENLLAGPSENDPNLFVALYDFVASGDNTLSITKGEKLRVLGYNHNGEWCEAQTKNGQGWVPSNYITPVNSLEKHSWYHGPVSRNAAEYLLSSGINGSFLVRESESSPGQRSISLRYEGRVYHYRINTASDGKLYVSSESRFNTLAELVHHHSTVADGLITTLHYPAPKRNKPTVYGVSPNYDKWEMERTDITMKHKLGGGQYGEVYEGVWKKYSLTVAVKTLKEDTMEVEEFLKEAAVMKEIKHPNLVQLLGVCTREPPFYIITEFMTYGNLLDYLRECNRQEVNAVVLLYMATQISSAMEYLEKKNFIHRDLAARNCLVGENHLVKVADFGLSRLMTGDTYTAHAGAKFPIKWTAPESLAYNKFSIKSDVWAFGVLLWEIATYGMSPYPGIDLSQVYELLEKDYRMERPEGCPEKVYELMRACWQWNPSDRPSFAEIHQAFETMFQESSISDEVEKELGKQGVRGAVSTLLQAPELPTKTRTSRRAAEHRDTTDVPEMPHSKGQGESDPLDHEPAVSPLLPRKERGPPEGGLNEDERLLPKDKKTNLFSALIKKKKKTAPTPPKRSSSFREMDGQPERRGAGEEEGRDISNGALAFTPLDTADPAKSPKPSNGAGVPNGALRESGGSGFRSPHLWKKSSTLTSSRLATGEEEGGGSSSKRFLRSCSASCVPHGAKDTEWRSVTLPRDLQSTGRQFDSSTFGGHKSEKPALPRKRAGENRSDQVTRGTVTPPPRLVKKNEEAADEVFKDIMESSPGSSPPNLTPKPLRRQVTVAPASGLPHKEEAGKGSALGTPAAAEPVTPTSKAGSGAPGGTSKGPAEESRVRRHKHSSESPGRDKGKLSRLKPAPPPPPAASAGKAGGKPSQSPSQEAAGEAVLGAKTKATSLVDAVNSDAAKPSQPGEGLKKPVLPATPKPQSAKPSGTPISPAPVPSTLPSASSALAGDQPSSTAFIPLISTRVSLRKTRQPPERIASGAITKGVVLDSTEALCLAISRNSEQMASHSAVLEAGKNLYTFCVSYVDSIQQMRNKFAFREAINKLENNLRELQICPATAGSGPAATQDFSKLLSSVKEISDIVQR
# Ras and Rab interactor 1/Tyrosine-protein kinase ABL1, sequence (Q13671 whole entry): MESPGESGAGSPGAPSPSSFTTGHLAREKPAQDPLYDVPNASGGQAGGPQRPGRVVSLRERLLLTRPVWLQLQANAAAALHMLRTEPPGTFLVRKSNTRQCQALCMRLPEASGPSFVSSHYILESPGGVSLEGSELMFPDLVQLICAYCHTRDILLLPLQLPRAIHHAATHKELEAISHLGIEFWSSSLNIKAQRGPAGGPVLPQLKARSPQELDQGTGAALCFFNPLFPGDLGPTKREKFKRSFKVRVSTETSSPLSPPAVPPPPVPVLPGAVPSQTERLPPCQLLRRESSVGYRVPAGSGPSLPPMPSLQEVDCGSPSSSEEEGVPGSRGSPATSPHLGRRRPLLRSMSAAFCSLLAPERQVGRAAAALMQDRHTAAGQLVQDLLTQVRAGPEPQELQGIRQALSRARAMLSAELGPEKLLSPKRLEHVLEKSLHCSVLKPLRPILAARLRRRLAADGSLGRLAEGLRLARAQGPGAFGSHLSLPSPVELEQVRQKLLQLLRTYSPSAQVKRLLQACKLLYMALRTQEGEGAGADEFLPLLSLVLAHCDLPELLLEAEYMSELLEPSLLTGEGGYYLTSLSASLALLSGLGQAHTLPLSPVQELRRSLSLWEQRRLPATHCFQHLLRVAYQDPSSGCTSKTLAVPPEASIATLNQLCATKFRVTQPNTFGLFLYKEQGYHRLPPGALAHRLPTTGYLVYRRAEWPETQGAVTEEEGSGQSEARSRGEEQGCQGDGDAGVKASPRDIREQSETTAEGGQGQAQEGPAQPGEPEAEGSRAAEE
# Nonstructural protein 1 = Nonstructural protein 1 (Influenza A virus, UniProt Q194T2); assay type: functional, Influenza A virus (A/California/07/2009(H1N1))
# Nonstructural protein 1, sequence (Q194T2 whole entry): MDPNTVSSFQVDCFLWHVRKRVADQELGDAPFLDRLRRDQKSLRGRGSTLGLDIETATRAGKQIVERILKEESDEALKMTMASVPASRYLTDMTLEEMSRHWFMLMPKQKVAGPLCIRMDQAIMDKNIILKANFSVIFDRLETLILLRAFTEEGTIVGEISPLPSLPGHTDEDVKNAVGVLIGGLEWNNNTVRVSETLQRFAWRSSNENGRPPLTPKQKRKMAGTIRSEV
# [11] = target: 26S proteasome non-ATPase regulatory subunit 14 (Homo sapiens, UniProt O00487); experiment: inhibition of proteasome subunit RPN11 – biochemical, fluorescence polarization, uHTS hits, confirmation (AID 602368); assay type: functional
# 26S proteasome non-ATPase regulatory subunit 14, sequence (O00487 whole entry): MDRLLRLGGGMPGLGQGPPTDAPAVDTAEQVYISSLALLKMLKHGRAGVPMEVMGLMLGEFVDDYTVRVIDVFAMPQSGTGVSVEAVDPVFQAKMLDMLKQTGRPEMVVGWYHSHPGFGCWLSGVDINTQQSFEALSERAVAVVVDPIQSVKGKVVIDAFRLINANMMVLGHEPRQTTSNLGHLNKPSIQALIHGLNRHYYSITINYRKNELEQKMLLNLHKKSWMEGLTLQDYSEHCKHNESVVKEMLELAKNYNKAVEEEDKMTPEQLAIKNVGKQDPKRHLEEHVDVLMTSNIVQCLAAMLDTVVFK
# Cytochrome P450 2C9 = Cytochrome P450 2C9 (Homo sapiens, UniProt P11712)
# Cytochrome P450 2C9, sequence (P11712 whole entry): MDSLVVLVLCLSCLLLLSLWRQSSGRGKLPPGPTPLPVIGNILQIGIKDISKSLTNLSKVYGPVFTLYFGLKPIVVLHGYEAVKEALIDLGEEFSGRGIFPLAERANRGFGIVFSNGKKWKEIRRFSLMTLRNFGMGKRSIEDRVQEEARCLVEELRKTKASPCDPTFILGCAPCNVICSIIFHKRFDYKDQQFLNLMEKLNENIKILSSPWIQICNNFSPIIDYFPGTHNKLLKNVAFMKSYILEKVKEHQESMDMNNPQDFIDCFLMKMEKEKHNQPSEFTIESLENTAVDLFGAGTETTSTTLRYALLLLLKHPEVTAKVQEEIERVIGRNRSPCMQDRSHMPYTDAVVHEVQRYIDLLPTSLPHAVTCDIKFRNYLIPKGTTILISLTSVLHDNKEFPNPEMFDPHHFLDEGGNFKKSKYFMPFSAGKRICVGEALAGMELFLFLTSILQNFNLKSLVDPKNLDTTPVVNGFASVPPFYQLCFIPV
# Prothrombin = Prothrombin (Bos taurus, UniProt P00735); experiment: thrombin inhibition, dose response, biochemical, fluorescence polarization, uHTS hits (AID 602369); assay type: functional
# [12] = target: 72 kDa type IV collagenase (Homo sapiens, UniProt P08253); experiment: Dose Response validation of uHTS RPN11 inhibitor hits using a MMP-2 Fluorescence assay.; assay type: functional
# 72 kDa type IV collagenase, sequence (P08253 whole entry): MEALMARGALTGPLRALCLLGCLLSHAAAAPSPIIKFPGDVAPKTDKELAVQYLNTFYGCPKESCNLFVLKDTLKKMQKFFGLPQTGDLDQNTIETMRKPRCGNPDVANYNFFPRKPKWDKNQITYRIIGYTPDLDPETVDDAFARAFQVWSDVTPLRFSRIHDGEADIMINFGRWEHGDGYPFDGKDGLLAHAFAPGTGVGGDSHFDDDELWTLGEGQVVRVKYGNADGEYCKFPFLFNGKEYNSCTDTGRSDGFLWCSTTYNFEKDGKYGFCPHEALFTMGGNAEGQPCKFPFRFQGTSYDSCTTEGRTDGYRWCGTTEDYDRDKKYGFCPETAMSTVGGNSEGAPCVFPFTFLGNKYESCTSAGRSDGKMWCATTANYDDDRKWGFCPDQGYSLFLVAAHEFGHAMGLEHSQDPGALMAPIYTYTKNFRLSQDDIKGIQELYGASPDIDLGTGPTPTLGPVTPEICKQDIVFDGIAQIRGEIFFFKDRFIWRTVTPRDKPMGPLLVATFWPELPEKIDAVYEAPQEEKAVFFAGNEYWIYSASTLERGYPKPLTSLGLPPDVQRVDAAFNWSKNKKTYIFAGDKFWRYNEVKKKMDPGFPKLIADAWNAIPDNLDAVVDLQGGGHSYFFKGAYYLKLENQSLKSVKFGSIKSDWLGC
# Cytochrome P450 2C19 = Cytochrome P450 2C19 (Homo sapiens, UniProt P33261); experiment: Cytochrome panel assay with activity outcomes. Panel member name: p450-cyp2c19 Compounds with AC50 equal or less than 10 uM are considered active; assay type: functional; details: read-out: AC50
# Cytochrome P450 2C19, sequence (P33261 whole entry): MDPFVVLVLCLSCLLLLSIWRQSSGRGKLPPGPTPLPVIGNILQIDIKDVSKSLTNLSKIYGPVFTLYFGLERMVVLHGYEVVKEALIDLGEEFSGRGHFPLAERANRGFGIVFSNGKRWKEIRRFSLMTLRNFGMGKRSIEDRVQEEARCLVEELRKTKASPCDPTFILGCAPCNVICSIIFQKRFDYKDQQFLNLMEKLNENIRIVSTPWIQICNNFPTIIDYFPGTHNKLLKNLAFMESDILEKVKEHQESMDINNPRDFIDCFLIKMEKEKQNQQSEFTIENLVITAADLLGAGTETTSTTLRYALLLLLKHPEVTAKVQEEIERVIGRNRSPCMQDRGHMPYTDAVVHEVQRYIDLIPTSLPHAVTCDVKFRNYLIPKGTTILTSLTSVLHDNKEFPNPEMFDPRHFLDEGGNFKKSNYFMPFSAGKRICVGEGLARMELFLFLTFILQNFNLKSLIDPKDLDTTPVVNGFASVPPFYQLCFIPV
# [13] = target: T3, Endoribonuclease toxin MazF (Escherichia coli K-12, UniProt P0AE70); experiment: MazF toxin RNase activators, dose response, biochemical, fluorescence, single-stranded RNA substrate, uHTS hits (AID 588481); assay type: functional
# T3 sequence (P0AE70 whole entry): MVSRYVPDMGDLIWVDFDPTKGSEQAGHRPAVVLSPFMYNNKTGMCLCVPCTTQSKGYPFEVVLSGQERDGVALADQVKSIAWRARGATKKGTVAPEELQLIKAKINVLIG
# [14] = target: T3, Endoribonuclease toxin MazF; experiment: fluorescent RNA oligo signal without MazF, dose response, counter-screen for MazEF activator project, biochemical, fluorescence, single-stranded RNase substrate (AID 588502); assay type: functional
# Trypsin = Trypsin (Sus scrofa, UniProt P00761); experiment: porcine trypsin inhibitors, dose response, selectivity assay for Rce1 protease inhibitor project, biochemical, quenched peptide fluorescence, cherry-pick (AID 488789)
# Trypsin, sequence (P00761 whole entry): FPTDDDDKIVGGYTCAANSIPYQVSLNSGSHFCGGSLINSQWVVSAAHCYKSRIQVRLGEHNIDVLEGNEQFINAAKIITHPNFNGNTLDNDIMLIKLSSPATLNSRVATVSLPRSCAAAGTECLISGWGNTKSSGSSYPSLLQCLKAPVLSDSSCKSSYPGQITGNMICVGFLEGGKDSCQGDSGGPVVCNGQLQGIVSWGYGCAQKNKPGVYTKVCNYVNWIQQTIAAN
# CAAX prenyl protease 2 = target: T4, CAAX prenyl protease 2 (Homo sapiens, UniProt Q9Y256); experiment: human Rce1 protease inhibitors, dose response, biochemical, yeast membranes, quenched-peptide fluorescence, cherry-pick (AID 588849)
# T4 sequence (Q9Y256 whole entry): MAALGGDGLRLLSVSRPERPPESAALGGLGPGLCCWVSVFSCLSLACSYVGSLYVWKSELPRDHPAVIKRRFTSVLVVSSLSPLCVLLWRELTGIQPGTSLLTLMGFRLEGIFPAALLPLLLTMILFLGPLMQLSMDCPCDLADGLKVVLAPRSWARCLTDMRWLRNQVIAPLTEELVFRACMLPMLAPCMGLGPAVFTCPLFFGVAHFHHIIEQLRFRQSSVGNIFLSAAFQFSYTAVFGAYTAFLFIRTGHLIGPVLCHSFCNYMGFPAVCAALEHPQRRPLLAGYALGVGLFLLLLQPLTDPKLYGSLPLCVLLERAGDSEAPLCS
smiles,measurement,setting,value
COc1cccc(-c2nc3cc(N4CCN(C)CC4)ccc3[nH]2)c1,AC50,[1],1.57 µM (active)
same,AC50,[2],2.55 µM (active)
same,AC50,[3],> 52 µM (inactive)
same,EC50,[4],9.73 µM (inconclusive)
same,AC50,HEK293,0.857 µM (active)
same,EC50,[5],5.7 µM (active)
same,EC50,[6],< 0.16 µM (active)
same,EC50,[7],9.34 µM (inconclusive)
same,AC50,[8],> 52 µM (inactive)
CC1NC(=O)NC1CCCCCC(=O)Nc1ccc(F)cc1 (centres undefined),AC50,[9],0.113 µM (active)
same,IC50,[10],0.0187 µM (active)
same,IC50,Nonstructural protein 1,0.979 µM (active)
CN(C(=O)c1ccc(NC(=O)Cc2ccc(NC(=O)C3CCN(C(=O)c4ccccc4)CC3)cc2)cc1)C1CC1,IC50,[10],0.407 µM (active)
O=C(NN=C1c2ccccc2-c2ccccc21)c1ccccn1,IC50,[11],24.4 µM (active)
same,AC50,Cytochrome P450 2C9,7.08 µM (inconclusive)
same,IC50,Prothrombin,> 100 µM (inactive)
same,IC50,[12],> 100 µM (inactive)
same,AC50,Cytochrome P450 2C19,2.82 µM (inconclusive)
Nc1c(C(=O)Nc2ccccc2)sc2nc3c(c(-c4ccco4)c12)CCC3,EC50,[13],11.3 µM (active)
same,EC50,[14],> 99 µM (inactive)
COc1ccc(C)c2sc(NC(=O)C3=COCCO3)nc12,AC50,Trypsin,18.8 µM (active)
same,AC50,CAAX prenyl protease 2,13.4 µM (active)
same,EC50,[6],> 195 µM (not active)
COc1ccc2nc(-c3ccc(C)cc3)cc(O)c2c1,AC50,HEK293,2.68 µM (active)
